Earlier results, collected in patent US9095607B2, “Gel for topical application of clove essential oil with broad spectrum anti-inflammatory action and method of preparing same” (priority 2013, dated 2015).

Legend:
[1] = tested on: NF-kB
[2] = tested on: neutrophil migration
[3] = tested on: kinin B1 receptors

| SMILES | LPS-induced NF-kB activation [1] | LPS-induced neutrophil migration [2] | in vivo up-regulation of kinin B1 receptors [3] |
| --- | --- | --- | --- |
| C=C1CC/C=C(\C)CC[C@@H]2[C@@H]1CC2(C)C [Beta-caryophyllene] | inhibit | inhibit | – |
| C/C1=C\CC/C(C)=C/CC(C)(C)/C=C/C1 [Alpha-humulene] | inhibit | inhibit | ability to prevent |
